# Laboratory results taken from article PMC7006651, “Effect of 6-Benzoyl-benzothiazol-2-one scaffold on the pharmacological profile of α-alkoxyphenylpropionic acid derived PPAR agonists” (Journal of Enzyme Inhibition and Medicinal Chemistry, 2020).
# Like-named read-outs stand apart in the source and are kept apart here.
# How the values were obtained:
# [1] = molecular target: T1, human PPARα (Homo sapiens, UniProt Q07869); assay: Gene reporter (transactivation) assay, Cos-7 cells transfected with pGal4-hPPARα; type: cell-based; conditions: for Emax: COS-7, 24 h, read-out: hPPAR gene reporter αGal4 (%); for Emax / hPPAR gene reporter αGal4 (%): Emax relative to maximum activation with WY14643 (10 µM) = 100%; for EC50: GAL4 chimeric hPPARα, read-out: hPPAR gene reporter αEC50; for EC50 / hPPAR gene reporter αGal4 (%): 24 h;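 as to all read-outs here: luciferase signal from a Gal4-driven reporter normalised to cotransfected β-galactosidase activity, cells exposed to rising compound concentrations with DMSO vehicle as control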
# T1 construct: expressed in transfected cells; host or cells: Cos-7
# T1 sequence (Q07869 239-466 limits assumed): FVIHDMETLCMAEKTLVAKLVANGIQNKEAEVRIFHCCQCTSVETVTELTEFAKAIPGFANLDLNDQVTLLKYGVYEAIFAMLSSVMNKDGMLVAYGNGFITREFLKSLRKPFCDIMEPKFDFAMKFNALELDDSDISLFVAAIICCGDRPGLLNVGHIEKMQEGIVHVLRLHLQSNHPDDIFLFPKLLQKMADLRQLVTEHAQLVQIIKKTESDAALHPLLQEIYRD
# Procedure: (§1) Cos-7 cells were transiently transfected with luciferase reporter plasmid (pG5-TK-pGL3) in the presence of pGal4-hPPARα or pGal4-hPPARγ (these vectors express chimeric proteins containing the Gal4 DNA-binding domain fused to the human PPARα or PPARγ ligand binding domain coding sequence) expression vector. […] Cells were transfected in OptiMEM without FCS for 3 h at 37°, using polyethylenimine (PEI), with reporter and expression plasmids, as stated in figure’s legend. The plasmid pBluescript (Stratagene, La Jolla, CA) was used as carrier DNA to set the final amount of DNA to 5.5 µg/dish. The pCMV- ß-galactosidase expression plasmid was cotransfected as a control for transfection efficiency. […] After 16 h, cells were trypsinised and seeded in 96-well plates at the density of 2 × 10^4 cells/well and incubated for 6 h in 10% FCS containing DMEM. Cells were then incubated for 24 h in DMEM containing 0.2% FCS and increasing concentrations of the compound tested or vehicle (DMSO). At the end of the experiment, cells were washed once with ice-cold PBS and the luciferase and the β–galactosidase assays were performed as described previously[20]. Cells were incubated 24 h in the presence of indicated concentrations of compound. Luciferase activity was measured and normalised to internal control β-galactosidase activity. […] EC50 were estimated using Prism software (GraphPad). All transfection experiments were performed at least three times.
# [2] = molecular target: T2, human PPARγ (Homo sapiens, UniProt P37231); assay: Gene reporter (transactivation) assay, Cos-7 cells transfected with pGal4-hPPARγ; type: cell-based; conditions: for Emax: COS-7, 24 h, read-out: hPPAR gene reporter γGal4 (%); for EC50: GAL4 chimeric hPPARγ, read-out: hPPAR gene reporter γEC50;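 as to all read-outs here: luciferase reporter (pG5-TK) activity normalised to cotransfected β-galactosidase, cells exposed to increasing compound concentrations in DMEM with 0.2% FCS, DMSO vehicle as control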
# T2 construct: expressed in transfected cells; host or cells: Cos-7
# T2 sequence (P37231 238-503 limits assumed): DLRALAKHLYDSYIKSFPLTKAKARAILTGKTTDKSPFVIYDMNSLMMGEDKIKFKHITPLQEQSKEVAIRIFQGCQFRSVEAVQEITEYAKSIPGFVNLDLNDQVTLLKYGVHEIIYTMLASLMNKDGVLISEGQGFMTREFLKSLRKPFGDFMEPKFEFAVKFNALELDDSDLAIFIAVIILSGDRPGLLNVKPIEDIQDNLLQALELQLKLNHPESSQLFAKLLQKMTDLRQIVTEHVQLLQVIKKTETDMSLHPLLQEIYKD
# Procedure: as §1
# [3] = test system: ob/ob mice; assay: In vivo ob/ob mice: glycaemia, triglyceridemia, insulinemia, body weight; conditions: oral, 4 days, synthesised compounds 8.4 µMkg^−1, references 3 mgkg^−1; for ΔBW (body weight variation between day 0 and day 4): expressed in % of rosiglitazone in the same study (= 100%), ob/ob mice; for Change (%) Gly (glycemia) / Change (%) Ins (insulin) / Change (%) TG (triglycerides): percent change versus control, ob/ob mice at day 4;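 as to all read-outs here: male ob/ob mice aged 10–12 weeks, given the compound once daily by oral gavage as a 1% hydroxyethylcellulose suspension, 8–12 animals per group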
# Procedure: The glucose- and triglyceride-lowering activities of the compounds prepared were then tested using 10–12-week-old male ob/ob mice. […] Mice had access to filtered (0.22 mm) tap water ad libitum and irradiated pelleted laboratory chow (transbreed, Special Diet Services, England) throughout the study. Compounds were prepared as a suspension in 1% hydroxyethylcellulose (HEC) for oral administration (10 mLkg^−1). The mice (n = 8–12 per group) were dosed by gavage daily between 15:00 and 17:00 for 4 days. Randomisation was performed based on glycaemia values. The body weight gain (DBW in grams) of the animals was determined by measuring the difference between body weight at the beginning and end of the study for each mouse. At day 5 between 9:00 and 11:00 the mice were weighed, and blood samples were collected into heparin-containing tubes by retro-orbital puncture (500 mL per mouse). […] Plasma samples were prepared by centrifugation (2000 g for 10 min), and stored at −20 °C. For triglycerides and insulin determination, the percent change in plasma level in the treated group was calculated relative to the mean plasma level in the vehicle-treated group. ANOVA, followed by Dunnett’s comparison test (one-tailed) was used to estimate significant differences between the plasma glycaemia, triglycerides, insulin, and DBW values between the control group and the individual compound-treated groups.
# As a side effect index, body weight was also measured daily, and body weight variation was calculated as a percentage of the difference in body weight between days 4 and 0.
# [4] = molecular target: T3, human PPARγ (Homo sapiens, UniProt P37231); assay: Membrane-bound PPARγ binding assay ([3H]rosiglitazone competition, filtration); conditions: competition with [3H]rosiglitazone (4 nM), 180 min at 4 °C; read-out: Ki (nM), hPPARγ binding affinity
# T3 sequence (P37231 235-505 limits assumed): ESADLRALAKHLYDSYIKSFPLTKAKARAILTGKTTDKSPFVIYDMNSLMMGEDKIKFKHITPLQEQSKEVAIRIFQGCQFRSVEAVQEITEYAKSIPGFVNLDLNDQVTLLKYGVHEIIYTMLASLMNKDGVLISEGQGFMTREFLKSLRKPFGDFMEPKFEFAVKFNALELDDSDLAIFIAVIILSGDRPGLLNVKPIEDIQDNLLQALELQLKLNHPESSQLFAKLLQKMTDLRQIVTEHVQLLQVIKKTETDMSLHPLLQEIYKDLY
# Procedure: The membrane-associated PPARγ was used as the biological source as previously described. Binding buffer consisted of 10 mM Tris/HCl, pH 8.2, containing 50 mM KCl and 1 mM dithiothreitol. […] Radioactivity was measured in a TopCount apparatus (Packard).
# [5] = Emax relative to maximum activation with rosiglitazone (1 μM) = 100%, Cos-7 cells, 24 h
Structure (SMILES),melting point [°C],Emax [1] [%],"Emax [2, 5] [%]","EC50 ([2]; Cos-7 cells, 24 h) [nM]",Ki [4] [nM],EC50 [1] [nM],hPPAR gene reporter αGal4 (%) [1] [%],"hPPAR gene reporter γGal4 (%) [2, 5] [%]",ΔBW (body weight variation between day 0 and day 4) [3] [%],Change (%) Gly (glycemia) [3] [%],Change (%) Ins (insulin) [3] [%],Change (%) TG (triglycerides) [3] [%],Emax [2] [%]
"O=C(O)C(Cc1ccc(OCCn2c(=O)sc3cc(C(=NO)c4ccccc4)ccc32)cc1)OCC(F)(F)F (mixture of isomers) [Compound 39b, 3-{4-[2–(6-[(Z/E)-hydroxyimino-phenyl-methyl]-2-oxo-benzothiazol-3-yl)-ethoxy]-phenyl}-2–(2,2,2-trifluoro)ethoxypropionic acid]",55 to 56,29,44,10,165,–,–,–,75,−18,10,−30,–
"CON=C(c1ccccc1)c1ccc2c(c1)sc(=O)n2CCOc1ccc(CC(OCC(F)(F)F)C(=O)O)cc1 (racemic) [Compound 40b, 3-{4-[2–(6-[(E)-methoxyimino-phenyl-methyl]-2-oxo-benzothiazol-3-yl)-ethoxy]-phenyl}-2–(2,2,2-trifluoro)ethoxypropionic acid]",56 to 57,56,95,7,1.3,180,–,–,−70,−37,−55,−54,–
"CCOC(Cc1ccc(OCCN2C(=O)CSc3ccc(C(=O)c4ccccc4)cc32)cc1)C(=O)O (stereo not shown) [Compound 33, 3-{4-[2–(6-benzoyl-3-oxo-benzo[1, 4]thiazin-4-yl)-ethoxy]-phenyl}-2-ethoxypropionic acid]",52 to 54,≤ 20,≤ 70,219,220,10000,–,–,–,–,–,–,–
"CCOC(Cc1ccc(OCCN2C(=O)CSc3cc(C(=O)c4ccccc4)ccc32)cc1)C(=O)O (stereo not shown) [Compound 34, 3-{4-[2–(7-benzoyl-3-oxo-benzo[1, 4]thiazin-4-yl)-ethoxy]-phenyl}-2-ethoxypropionic acid]",58 to 60,116,97,37,4,2050,–,–,–,–,–,–,–
"CCOC(Cc1ccc(OCCN2C(=O)Cc3cc(C(=O)c4ccccc4)ccc32)cc1)C(=O)O (stereo not shown) [Compound 37, 3-{4-[2–(5-benzoyl-2-oxo-2,3-dihydroindol-1-yl)ethoxy]phenyl}-2-ethoxypropionic acid]",68 to 70,100,≤ 75,40,6.5,–,–,–,–,–,–,–,–
"CCOC(Cc1ccc(OCCn2c(=O)sc3cc(/C(=N/O)c4ccccc4)ccc32)cc1)C(=O)O (stereo not shown) [Compound 39a, 3-{4-[2–(6-[(E)-hydroxyimino-phenyl-methyl]-2-oxo-benzothiazol-3-yl)-ethoxy]-phenyl}-2-ethoxypropionic acid]",84 to 85,129,91,24,2,–,–,–,−10,−49,−34,−69,–
"CCOC(Cc1ccc(OCCn2c(=O)sc3cc(/C(=N/OC)c4ccccc4)ccc32)cc1)C(=O)O (stereo not shown) [Compound 40a, 3-{4-[2–(6-[(E)-methoxyimino-phenyl-methyl]-2-oxo-benzothiazol-3-yl)-ethoxy]-phenyl}-2-ethoxypropionic acid]",151 to 152,159,87,2,4,129,–,–,188,−58,−76,−83,–
"CON=C(c1ccccc1)c1ccc2c(c1)sc(=O)n2CCOc1ccc(C[C@H](OCC(F)(F)F)C(=O)O)cc1 [Compound 44b, (S)-3-{4-[2–(6-[(E)-methoxyimino-phenyl-methyl]-2-oxo-benzothiazol-3-yl)-ethoxy]-phenyl}-2–(2,2,2-trifluoro)ethoxypropionic acid]",–,–,–,0.9,3,525,59,150,−17,−36,−89,−69,–
"CCO[C@H](Cc1ccc(OCCn2c(=O)sc3cc(/C(=N/OC)c4ccccc4)ccc32)cc1)C(=O)O [Compound 46a, (R)-3-{4-[2–(6-[(E)-methoxyimino-phenyl-methyl]-2-oxo-benzothiazol-3-yl)-ethoxy]-phenyl}-2-ethoxypropionic acid]",151 to 152,124,87,558,86,1480,–,–,–,–,–,–,–
"Cc1cccc(Nc2cc(Cl)nc(SCC(=O)O)n2)c1C [WY14643, reference compound]",–,–,–,–,–,–,100,–,–,–,–,–,–
"COc1ccc(OC(=O)N(CC(=O)O)Cc2ccc(OCCc3nc(-c4ccccc4)oc3C)cc2)cc1 [mura, Muraglitazar, reference compound]",–,84,–,–,–,595,–,–,206,−46,−46,−34,128
"CN(CCOc1ccc(CC2SC(=O)NC2=O)cc1)c1ccccn1 (stereo not shown) [rosi, Rosiglitazone, reference compound]",–,–,–,–,–,–,–,–,100,−57,−73,−46,–

# Further lines, with some results ahead:
melting point [°C],Emax [1] [%],"Emax [2, 5] [%]","EC50 ([2]; Cos-7 cells, 24 h) [nM]",Ki [4] [nM],EC50 [1] [nM],hPPAR gene reporter αGal4 (%) [1] [%],"hPPAR gene reporter γGal4 (%) [2, 5] [%]",Structure (SMILES),ΔBW (body weight variation between day 0 and day 4) [3] [%],Change (%) Gly (glycemia) [3] [%],Change (%) Ins (insulin) [3] [%],Change (%) TG (triglycerides) [3] [%],Emax [2] [%]
49 to 51,≥ 80,–,61,8,256,–,–,"CCOC(Cc1ccc(OCCn2c(=O)sc3ccc(C(=O)c4ccccc4)cc32)cc1)C(=O)O (stereo not shown) [Compound 31, 3-{4-[2–(5-benzoyl-2-oxo-benzothiazol-3-yl)-ethoxy]-phenyl}-2-ethoxypropionic acid]",–,–,–,–,–
47 to 49,97,> 100,2,3,–,–,–,"CCOC(Cc1ccc(OCCN2C(=O)COc3ccc(C(=O)c4ccccc4)cc32)cc1)C(=O)O (stereo not shown) [Compound 35, 3-{4-[2–(6-benzoyl-3-oxo-benzo[1, 4]oxazin-4-yl)-ethoxy]-phenyl}-2-ethoxypropionic acid]",–,–,–,–,–
36 to 38,80,> 100,80,1,–,–,–,"CCOC(Cc1ccc(OCCN2C(=O)COc3cc(C(=O)c4ccccc4)ccc32)cc1)C(=O)O (stereo not shown) [Compound 36, 3-{4-[2–(7-benzoyl-3-oxo-benzo[1, 4]oxazin-4-yl)-ethoxy]-phenyl}-2-ethoxypropionic acid]",–,–,–,–,–
–,89,≤ 75,5,4,–,–,–,"CCOC(Cc1ccc(OCCN2C(=O)C(F)(F)c3cc(C(=O)c4ccccc4)ccc32)cc1)C(=O)O (stereo not shown) [Compound 38, 3-{4-[2–(5-benzoyl-3,3-difluoro-2-oxo-2,3-dihydroindol-1-yl)ethoxy]phenyl}-2-ethoxy-propionic acid]",–,–,–,–,–
–,–,–,9,33,1660,117,116,"CON=C(c1ccccc1)c1ccc2c(c1)sc(=O)n2CCOc1ccc(C[C@@H](OCC(F)(F)F)C(=O)O)cc1 [Compound 46b, (R)-3-{4-[2–(6-[(E)-methoxyimino-phenyl-methyl]-2-oxo-benzothiazol-3-yl)-ethoxy]-phenyl}-2–(2,2,2-trifluoro)ethoxypropionic acid]",–,–,–,–,–
